Results on one compound are retold here after patent US20210113602A1, “USE OF 6-THIO-2'-DEOXYGUANOSINE (6-THIO-dG) TO TREAT MELANOMA” (The Board of Regents of the University of Texas System, priority 2018, published 2021).

One assay concerns NRAS mutant SKNAS cells. In words: Cell death, Annexin V/PI. Format: cell-based, human. The following applies: single agents or combination; 1 μM 6-thio-dG, 5 μM Gam.
The test system of assay [1] is non-transformed primary human melanocytes. Nature of the assay: Cell viability, Alamar Blue assay. The class given is cell-based. Particulars: 7 days; telomerase negative cells. Here is the method:
(§1) FIGS. 2a-h. […] (FIGS. 2a-c) NRASmut melanoma cells (FIG. 2a), BRAF-V600E/NRAS mutant cells derived from melanoma patients resistant to BRAF/MEK inhibitors (FIG. 2b), or non-transformed melanocytes and fibroblasts (FIG. 2c) were treated with 6-thio-dG for 7 days. Cell viability was measured by Alamar Blue assay and calculated relative to DMSO-treated cells. (FIG. 2d) NRASmut melanoma cells and non-transformed human fibroblasts were treated with 1 or 5 μM 6-thio-dG for 7 or 14 days. Cell death was assessed by PSVUe staining. Percent of apoptotic cells is shown. (FIG. 2e) Cells were treated with DMSO or 1 μM 6-thio-dG for 14 days and telomere length was assessed by Southern blotting of TRF. Mean TRF length expressed as kilobase pairs is indicated at the bottom. (FIGS. 2f-g) Cells were treated with 1 μM 6-thio-dG for 7 days. (FIG. 2f) ROS production was measured by H2DCFDA fluorescence and normalized to MSO treated cells. (FIG. 2g) DNA damage was assessed by γH2AX staining. […] Tumor volume was measured and average tumor volume (n=4)±SEM was plotted vs. time.
(§2) Cell culture, viability and cell death assays. […] Cell viability was assessed following 6 hr incubation with 500 μM Alamar Blue (ThermoFisher Scientific, Waltham, Mass.) using an EnVision Xcite Multilabel plate reader (Perkin Elmer, Waltham, Mass.). […]

For assay [2], the system named is non-transformed primary human fibroblasts. Nature of the assay: Cell viability, Alamar Blue assay. Format: cell-based. Particulars: 7 days; telomerase negative cells. Here is the method:
as §1, §2

The subject of assay [3] is NRAS-WT/BRAF-WT melanoma cells. Nature of the assay: Cell death, Annexin V/PI. The class given is cell-based, human. Particulars: single agents or combination; 1 μM 6-thio-dG, 5 μM Gam.
Assay [4] relates to NRAS mutant melanoma cells. In words: Cell death by flow cytometry (PSVue or Annexin V/PI). The class given is cell-based.
Procedure: (FIG. 2d) NRASmut melanoma cells and non-transformed human fibroblasts were treated with 1 or 5 μM 6-thio-dG for 7 or 14 days. Cell death was assessed by PSVUe staining. Percent of apoptotic cells is shown. […] (FIGS. 2f-g) Cells were treated with 1 μM 6-thio-dG for 7 days. […] Data represent average from three independent experiments±SEM. *p<0.05; **p<0.01; ***p<0.005 in unpaired Student's t-test.
(FIG. 3f) SOD2 was silenced using shRNA. Transduced M93-047 cells were treated with DMSO or 1 μM of 6-thio-dG and cell death was assessed by Annexin V/PI straining. (FIG. 3g) M93-047 cells were transduced with a SOD2 lentiviral construct or empty vector control (pLX304). Transduced cells were treated with increasing doses (1, 2.5 and 5 μM) of 6-thio-dG for 7 days and cell death was assessed. Data represent average from three independent experiments±SEM. *p<0.05; **p<0.01; ***p<0.005 in unpaired Student's t-test.
(FIG. 4a) NRASmut melanoma cells transduced with TERT shRNA were treated 7 days post infection with 5 μM Gamitrinib (Gam) for 48 h. Cell death was assessed by Annexin V and PI staining. (FIG. 4b) NRASmut melanoma cells and non-transformed fibroblasts were treated with 1 μM 6-thio-dG for 5 days. At day 5, culture medium was replaced and cells treated with 1 μM 6-thio-dG plus 5 μM Gam for two more days. Cells were stained with Annexin V and PI and percent cell death was determined by flow cytometry. […] Data represent average of three independent experiments ±SEM. P values were calculated using unpaired Student's t-test; * p<0.05; ***p<0.005.
(Supplementary FIG. 10a) NRASmut melanoma cells were treated with 6-thio-dG (1 μ) for 7 days total. At day 5, culture medium was replaced and cells were treated with 1 μM 6-thio-dG plus 1 mM Phenformin for two more days. Percent cell death was determined by flow cytometry following staining of cells with Annexin V and Propidium iodide. Data represent average of three independent experiments +/−SEM. *p<0.05 in unpaired Student's t-test.
Assay [5] deals with NRAS mutant melanoma cells. In words: DNA damage, γH2AX staining. The class given is cell-based, human. The following applies: 1 μM for 7 days. Here is the method: FIGS. 2a-h. […] (FIGS. 2a-c) NRASmut melanoma cells (FIG. 2a), BRAF-V600E/NRAS mutant cells derived from melanoma patients resistant to BRAF/MEK inhibitors (FIG. 2b), or non-transformed melanocytes and fibroblasts (FIG. 2c) were treated with 6-thio-dG for 7 days. Cell viability was measured by Alamar Blue assay and calculated relative to DMSO-treated cells. (FIG. 2d) NRASmut melanoma cells and non-transformed human fibroblasts were treated with 1 or 5 μM 6-thio-dG for 7 or 14 days. Cell death was assessed by PSVUe staining. Percent of apoptotic cells is shown. (FIG. 2e) Cells were treated with DMSO or 1 μM 6-thio-dG for 14 days and telomere length was assessed by Southern blotting of TRF. Mean TRF length expressed as kilobase pairs is indicated at the bottom. (FIGS. 2f-g) Cells were treated with 1 μM 6-thio-dG for 7 days. (FIG. 2f) ROS production was measured by H2DCFDA fluorescence and normalized to MSO treated cells. (FIG. 2g) DNA damage was assessed by γH2AX staining. Data represent average from three independent experiments±SEM. *p<0.05; **p<0.01; ***p<0.005 in unpaired Student's t-test. […] Tumor volume was measured and average tumor volume (n=4)±SEM was plotted vs. time.
DNA damage and telomere dysfunction assay (TIF). […] Mean fluorescence staining was quantified by flow cytometry. […]

The test system of another assay is KRAS mutant HCT116 cells. Nature of the assay: Cell death, Annexin V/PI. The following applies: 1 μM 6-thio-dG, 5 μM Gam. The class given is cell-based, human.
The subject of assay [6] is NRAS mutant melanoma cells. In words: Relative cell number, Crystal Violet assay. The class given is cell-based, human. Particulars: 6, 12 or 18 days; relative to DMSO. Here is the method:
Supplementary FIGS. 8a-d. NRAS mutant melanoma cells are sensitive to the telomere uncapping agent 6-thio-dG. NRAS^mut melanoma cells were treated with 6-thio-dG for 6, 12 or 18 days. (Supplementary FIG. 8a) Relative cell number was assessed by […] Violet assay and calculated relative to DMSO-treated cells. Data represent average of three independent experiments +/-SD. (Supplementary FIG. 8b) Representative pictures of cells treated with 6-thio-dG for the indicated days and stained with Crystal Violet. (Supplementary FIG. 8c) NRAS^mut cells were treated with 6-thio-dG for 7 days and telomere-induced foci (TIF) were determined by indirect immunofluorescence combined with fluorescence in situ hybridization (FISH). Cells were considered TIF-positive when for or more co-localizing foci of telomeres and γ-H2AX were found. (Supplementary FIG. 8d) Quantification of TIF assay. Cells were scored as TIF-positive when four or more γ-H2AX foci (green) were co-localizing with telomere foci (red). Data represent average of […]. P values were calculated by unpaired Student's t-test.

For `Nc1nc2c(ncn2[C@H]2C[C@H](O)[C@@H](CO)O2)c(=S)[nH]1` [6-thio-dG, 6-thio-2′-deoxy-guanosine], the cell death result is on record as “triggered significant death” with NRAS mutant SKNAS cells; “did not induce cell death” in assay [3]; “led to cell death” in assay [4] (1 or 5 μM for 7 or 14 days, PSVue staining); “did not induce substantial death” with KRAS mutant HCT116 cells. For the same compound, the cell viability entry in assay [1] and in assay [2] was “did not significantly affect” each time. The “apoptosis in SOD2 overexpressing cells” value in assay [4] (SOD2 lentiviral construct, 1, 2.5 and 5 μM 6-thio-dG) is listed as “attenuated the apoptosis-inducing effects”. In assay [4] (SOD2 shRNA, 1 μM 6-thio-dG, M93-047, WM3000), the “apoptosis in SOD2 depleted cells” value is listed as “enhanced the ability of 6-thio-dG to induce apoptosis”. The γH2AX levels result in assay [5] is “increased levels”. In assay [6], the “relative cell number (sensitivity)” value was “sensitive”.
